Values quoted from earlier work in patent US9603811B2, “Pharmaceutical compositions of carotenoid chylomicrons” (HEALTH-EVER BIOTECH CO. LTD, priority 2013, dated 2017).
Where two headings read alike, the source gives them in different places.

SMILES: CC(C)=CCC/C(C)=C/C=C/C(C)=C/C=C/C(C)=C/C=C/C=C(C)/C=C/C=C(C)/C=C/C=C(\C)CCC=C(C)C [solanorubin]
- solubility in water: practically insoluble in water
- solubility in water (listed as Solanorubin): insoluble in water
